Assay results taken from US11530196B2, “Pyrimidine compound acting on EGFR and ERBB2” (CHINA RESOURCES PHARMACEUTICAL HOLDINGS COMPANY LIMITED, priority 2019, dated 2022).

Tests used:
[1] = Pharmacokinetic study, single intravenous and oral administration in mice; format: in vivo; conditions: mouse, plasma
Method: The purpose of this experiment was to investigate the pharmacokinetics (PK) of the compounds in different species after single intravenous and single oral administration of the test compounds.
After intravenous or oral administration, blood samples were collected from the animals, and the actual time of blood collection was recorded. After the blood samples were collected, the samples were immediately transferred to the labelled centrifuge tube containing K2-EDTA, and then centrifuged to obtain plasma. Plasma was transferred to pre-cooled centrifuge tubes, quick-frozen in dry ice and stored in an ultra-low temperature refrigerator at −70±10° C. until LC-MS/MS analysis was performed.
The plasma drug concentration data of the compounds were processed using pharmacokinetic software with a non-compartmental model. The peak concentration (Cmax) and time to peak (Tmax), as well as the quantifiable end time were obtained directly from the plasma concentration-time curve. The following pharmacokinetic parameters were calculated using the log-linear trapezoidal method: half-life (T1/2), apparent volume of distribution (Vdss), and clearance (Cl), area under the time-plasma concentration curve from point 0 to the end time point (AUC0-last), and initial concentration (C0).

[2] = tested on: HuPrime lung cancer LU0387 subcutaneous xenograft tumor; assay: HuPrime lung cancer LU0387 subcutaneous xenograft BALB/c nude mouse model; format: in vivo, BALB/c Nude mice
Method: The antitumor effects of the test drug in HuPrime® lung cancer LU0387 subcutaneous xenograft BALB/C nude mouse were evaluated.
BALB/c Nude mice, female, 7-8 weeks, HuPrime® lung cancer xenograft model LU0387 tumor-bearing mouse tumor tissue.
BALB/c nude mice were subcutaneously inoculated with HuPrime® model LU0387 tumor blocks to establish a human lung cancer subcutaneous transplantation tumor model. The test was divided into a solvent control group and a test drug group. The drug was administered by gavage, once daily for 21 days. Efficacy was evaluated based on relative tumor inhibition rate (TGI), and the safety was evaluated based on animal weight change and mortality.
Tumor diameters were measured with vernier calipers twice a week. The calculation formula of tumor volume was: V=0.5a×b^2, wherein a and b represented the long and short diameters of the tumor, respectively.
The antitumor efficacy of the compounds was evaluated by TGI (%) or relative tumor proliferation rate T/C (%).
Relative tumor proliferation rate T/C (%)=TRTV/CRTV×100% (TRTV: mean RTV in the treatment group; CRTV: mean RTV in the solvent control group).
The relative tumor volume (RTV) was calculated according to the results of tumor measurement. The calculation formula was RTV=Vt/V0, wherein V0 was the tumor volume measured at the time of group administration (i.e., D0), and Vt was the tumor volume corresponding to a certain measurement. TRTV and CRTV were taken on the same day.
TGI (%), reflecting the tumor growth inhibition rate. TGI (%)=[(1−(average tumor volume at the end of administration of a treatment group−average tumor volume at the beginning of administration of this treatment group))/(average tumor volume at the end of treatment in the solvent control group−average tumor volume at the beginning of treatment of the solvent control group)]×100%.

[3] = Compound stability test in plasma (dog); format: in vitro ADME, Beagle
Method: In this study, mouse, SD rat, Beagle, cynomolgus monkey and human plasma were used as materials to investigate the stability of the tested compounds in the plasma of the above five species. Propantheline, Enalapril, Bisacodyl and Procaine were used as control compounds.
The experimental conditions for the test compounds were as follows: • test concentration: 2 μM (DMSO ≤0.5%); • incubation times: 0, 10, 30, 60 and 120 minutes; • frozen plasma (from multiple species) was used in the test system; • incubation conditions: 37° C.
The mixed frozen plasma was thawed in a 37° C. water bath prior to the experiment. Plasma was centrifuged at 4000 rpm for 5 minutes and cleared if there was a clot. The pH will be adjusted to 7.4±0.1 if required.
The intermediate solution of 1 mM compound and positive control was prepared by diluting 10 mM stock solution with 90 μL of dimethyl sulfoxide. 100 μM solution was prepared by diluting 20 μL of intermediate solution (1 mM) with 180 μL of 45% methanol/water.
2 μL of 100 μM solution was added to 98 μL of blank plasma to achieve a final concentration of 2 μM (in duplicate) of the sample, and the sample was incubated in a 37° C. water bath. At each time point (0, 10, 30, 60 and 120 min), 400 μL of termination solution (200 ng/mL toluenesulfonylurea and 200 ng/mL labetalol, 50% ACN/MeOH) was added to precipitate the proteins and mixed thoroughly. […]

- clearance ([1]; intravenous injection 2 mg/kg): 57.7 mL/min/kg
- half-life ([1]; intravenous injection 2 mg/kg): 1.76 h
- AUC ([1]; intravenous injection 2 mg/kg, read-out: Exposure of AUC): 0.884 µM·h
- Vd ([1]; intravenous injection 2 mg/kg, read-out: Vdss): 6.95 L/kg
- Cmax ([1]; oral 10 mg/kg): 300 nM
- Tmax ([1]; oral 10 mg/kg): 2 h
- bioavailability ([1]; oral 10 mg/kg): 22.1%
- AUC(0-t) ([1]; oral 10 mg/kg, read-out: Exposure of AUC0-last): 1.42 µM·h
- In vitro plasma stability (Residual percentage) ([3]; 120 minutes, 2 μM, 37° C.): 101.7%
- half-life at 2 µM ([3]; beagle, pH 7.4, 37° C., read-out: In vitro plasma half-life T1/2): > 4.82 h
Structure (SMILES): C=CC(=O)Nc1cc(Nc2ncc(C(=O)OC(C)C)c(-c3cn(OC)c4ccccc34)n2)c(OC)cc1N(C)CCN(C)C.CS(=O)(=O)O [Compound 1]
- Tumor volume (Day 0) ([2]; Day 0, mean ± standard error, n = 6): 122.13 ± 3.12 mm^3
- RTV ([2]; Day 20, gavage once daily): 0.14 ± 0.08
- T/C ([2]; Day 20, gavage once daily): 2%
- TGI ([2]; Day 20, gavage once daily): 114%
- Tumor volume (Day 20) ([2]; Day 20, gavage once daily): 16.97 ± 10.54 mm^3
